Assay results from patent US20130216590A1, “TOPICAL ANTIVIRAL FORMULATIONS FOR PREVENTION OF TRANSMISSION OF HSV-2” (priority 2010, published 2013).
In brackets after ≈: the same amount, converted by molar mass.

Experiments:
HIV-1 RT = biological target: T1, HIV-1 RT (Human immunodeficiency virus type 1 group M subtype B, UniProt P04585); experiment: HIV-1 reverse transcriptase assay; format: biochemical
T1 construct: HSV-1 DNA Polymerase and HIV-1 Reverse Transcriptase Assay
Experimental: (§1) The reaction mixture (40 μl) for the HSV-1 DNA polymerase and HIV-1 RT assays contained 4 μl Premix (200 mM Tris.HCl, pH 7.5; 2 mM DTT; 30 mM MgCl2), 4 μl BSA (5 mg/ml), 1.6 μl activated calf thymus DNA (1.25 mg/ml), 0.8 μl dCTP (5 mM), 0.8 μl dTTP (5 mM), 0.8 μl dGTP (5 mM), 2 μl radiolabeled [^3H]dATP (1 mCi/ml) (3.3 μM), 18 μl H2O and 4 μl tenofovir-DP at different concentrations (i.e. 200, 20, 2, 0.2 μM). The reaction was started by the addition of 4 μl recombinant HSV-1 DNA polymerase (kindly provided by M. W. Wathen (Pfizer, Kalamazoo, Mich.)) or recombinant HIV-1 RT (in 20 mM Tris.HCl, pH 8.0; 1 mM DTT; 0.1 mM EDTA; 0.2 M NaCl; 40% glycerol), and the reaction mixture was incubated for 60 min (HSV-1 DNA polymerase) or 30 min (HIV-1 RT) at 37° C. Then, 1 ml ice-cold 5% TCA in 0.02 M Na4P2O7.10H2O was added to terminate the polymerisation reaction, after which the acid-insoluble precipitate (radiolabeled DNA) was captured onto Whatman glass fiber filters type GF/C (GE Healthcare UK Limited, Buckinghamshire, UK) and further washed with 5% TCA and ethanol to remove free radiolabeled dATP. Radioactivity was determined in a Perkin Elmer Tri-Carb 2810 TR liquid scintillation counter.

HSV-1 DNA polymerase = biological target: T2, HSV-1 DNA polymerase (Human herpesvirus 1, UniProt P04293); experiment: HSV-1 DNA polymerase assay; format: biochemical; conditions: activated calf thymus DNA primer/template; [2,8-3H]dATP competing substrate
T2 construct: gift of M. W. Wathen (Pfizer, Kalamazoo, Mich.)
Experimental: as §1

HSV-2 = experiment: Herpes virus infection of primary monocyte/macrophage (M/M) cell cultures; format: cell-based
Experimental: Human peripheral blood mononuclear cells (PBMCs) were obtained from the blood of healthy seronegative donors by Ficoll-Hypaque density gradient centrifugation. […] Monocyte/macrophage (M/M) cells were separated by adherence onto plastic. […] African green monkey fibroblastoid kidney (Vero) cells highly sensitive to the cytopathic effect of HSV-2 were grown in RPMI medium supplemented with 10% heat inactivated FCS and were used in infectious virus titration assays.
Macrophage cultures were then infected with HSV-2 (100 CCID50) in the presence of the test compounds. After 2 hrs virus adsorption, the cultures were extensively washed to remove any residual virus particles. Fresh culture medium and compounds, at the indicated concentrations, were then added to the cultures. […] Appropriate positive (infected but not treated M/M) and mock-infected negative (uninfected and untreated M/M) controls were run for each experiment as well. All assays were performed in triplicate. […] Therefore, the potential inhibitory effect of the compounds on the replication of HSV-2 was evaluated 6 days after infection. The amount of infectious virus in the supernatants was determined by a classical limited dilution assay on Vero cell cultures. The titers of produced virus were calculated according to the Reed and Muench method and expressed as 50% tissue culture infective dose per ml (TCID50/ml).
The inhibition capacity was expressed in % and calculated considering as value 100 being the virus production in virus-infected untreated cultures.

[1] = system: organotypic raft cultures of keratinocytes; experiment: Toxic effects in organotypic epithelial raft cultures; format: cell-based; conditions: highest concentration, 50 μg/ml
Experimental: (§2) For the preparation of epidermal equivalents, a collagen matrix solution was made with collagen mixed on ice with 10-fold concentrated HAM's F12 media, 10-fold reconstitution buffer and Swiss 3T3 J2 fibroblasts. One milliliter of the collagen matrix solution was poured into the wells of 24-well microtiter plates. After gel equilibration with 1 ml of growth medium overnight at 37° C., 2.5×10^5 PHK cells were seeded on the top of the gels and maintained submerged for 24-48 hours. The collagen rafts were raised and placed onto stainless-steel grids at the interface between air and liquid culture medium. The growth medium was a mixture of ⅓ HAM F12 and ⅔ Dulbecco's modified Eagle's medium, with the same supplements as used for the Keratinocyte-SFM. Epithelial cells were allowed to stratify, the medium being replaced every 2-3 days. For the evaluation of the antiviral effects of the compounds in the raft system, two series of rafts were run in parallel, one for histological examination and the other one for quantification of viral production by a plaque reduction assay. Rafts were infected with 5,000 PFU of HSV-1 (KOS) or […] strains after 10 days post-lifting and then the medium was replaced by medium containing different dilutions of the compounds. The growth medium containing the different concentrations of the compounds was changed two days later and 3 days later (after 15 days of differentiation), one series of rafts was fixed in 10% buffered formalin, embedded in paraffin and stained with hematoxylin and eosin for histological evaluation. Another series of rafts was used to quantify virus production. For that purpose, each raft was frozen in 3 ml phosphate buffer saline (PBS) and thawed to release the virus from the infected epithelium. Supernatants were clarified by centrifugation at 1,800 rpm and titrated by a plaque assay in HEL cell cultures. Virus production in each raft was then calculated. Two rafts were used for each drug concentration to determine the effects of the compounds on virus yield.

HSV-2 (G) = experiment: Organotypic epithelial raft cultures infected with HSV-2; format: cell-based; conditions: for activity against HSV replication in rafts compared with tenofovir: HSV-1 and HSV-2, FIGS. 3A and 3B; for concentration resulting in complete protection of the epithelial tissue: HSV-2, data not shown
Experimental: as §2

HSV-1 (KOS) = experiment: Organotypic epithelial raft cultures infected with HSV-1; format: cell-based; conditions: reference HSV-1 laboratory strain
Experimental: as §2

HSV-1 (Kos strain) = experiment: In vivo antiviral activity in HSV-1-infected NMRI athymic nude mice
Experimental: (§3) Adult NMRI athymic nude mice (weighing ˜20 g) were scarified on the lumbosacral area over a surface of about 1 cm^2. Mice were inoculated with 5×10^3 PFU of HSV-1 (Kos strain) or 5×10^2 of HSV-2 (G strain) in 50 μL per mouse. […] In each experiment, a group of animals treated with a placebo formulation that was the same as the test formulation without drug was included as a negative control. […] The day of virus inoculation was always considered as day 0. All animal procedures were approved by the K.U. Leuven Animal Care Committee. Development of lesions and mortality were recorded over a one month period. Animals were euthanized when more than 30% loss in body weight or development of paralysis occurred. Survival rates were estimated according to the Kaplan-Meir method and were compared using the log-rank test (Mantel-Cox) test (GraphPad Prism).

HSV-1 and HSV-2 = experiment: HSV cytopathic effect (CPE) reduction assay, laboratory strains, HEL cell monolayers and PHKs; format: cell-based, herpes simplex virus; conditions: laboratory HSV strains; HEL cell monolayers and PHKs; read-out: EC50, inhibition of virus-induced cytopathicity
HSV-2 (G strain) = experiment: In vivo antiviral activity in HSV-2-infected NMRI athymic nude mice; conditions: for protection against viral-induced morbidity and mortality: 1% in DMSO (FIG. 5B)
Experimental: as §3

[2] = system: HSV-1 and HSV-2 clinical isolates; experiment: organism not typed; format: cell-based, herpes simplex virus; conditions: for antiherpetic activity against thymidine kinase-deficient strains compared with wild-type: clinical isolates, HEL
HSV-2 strain G (HSV-2G) = experiment: Human ex vivo tonsillar tissue, HSV DNA release by real-time PCR; format: cell-based; conditions: 33 μg/ml; tissues from two donors; data not shown
Experimental: For each experimental condition 16 tissue blocks were immersed in 500 μl of a HSV-2 (strain G) suspension for 2 hours at 37° C., washed three times with PBS and then placed on the gelfoam rafts. Tenofovir was added during the infection and replenished at each culture medium change. Herpes simplex viral replication was evaluated by the release of viral DNA into the culture medium as measured by quantitative real-time PCR (17). HIV-1 replication was evaluated by the release of p24 capsid antigen using a bead-based assay (18).

T2 sequence (P04293 whole entry): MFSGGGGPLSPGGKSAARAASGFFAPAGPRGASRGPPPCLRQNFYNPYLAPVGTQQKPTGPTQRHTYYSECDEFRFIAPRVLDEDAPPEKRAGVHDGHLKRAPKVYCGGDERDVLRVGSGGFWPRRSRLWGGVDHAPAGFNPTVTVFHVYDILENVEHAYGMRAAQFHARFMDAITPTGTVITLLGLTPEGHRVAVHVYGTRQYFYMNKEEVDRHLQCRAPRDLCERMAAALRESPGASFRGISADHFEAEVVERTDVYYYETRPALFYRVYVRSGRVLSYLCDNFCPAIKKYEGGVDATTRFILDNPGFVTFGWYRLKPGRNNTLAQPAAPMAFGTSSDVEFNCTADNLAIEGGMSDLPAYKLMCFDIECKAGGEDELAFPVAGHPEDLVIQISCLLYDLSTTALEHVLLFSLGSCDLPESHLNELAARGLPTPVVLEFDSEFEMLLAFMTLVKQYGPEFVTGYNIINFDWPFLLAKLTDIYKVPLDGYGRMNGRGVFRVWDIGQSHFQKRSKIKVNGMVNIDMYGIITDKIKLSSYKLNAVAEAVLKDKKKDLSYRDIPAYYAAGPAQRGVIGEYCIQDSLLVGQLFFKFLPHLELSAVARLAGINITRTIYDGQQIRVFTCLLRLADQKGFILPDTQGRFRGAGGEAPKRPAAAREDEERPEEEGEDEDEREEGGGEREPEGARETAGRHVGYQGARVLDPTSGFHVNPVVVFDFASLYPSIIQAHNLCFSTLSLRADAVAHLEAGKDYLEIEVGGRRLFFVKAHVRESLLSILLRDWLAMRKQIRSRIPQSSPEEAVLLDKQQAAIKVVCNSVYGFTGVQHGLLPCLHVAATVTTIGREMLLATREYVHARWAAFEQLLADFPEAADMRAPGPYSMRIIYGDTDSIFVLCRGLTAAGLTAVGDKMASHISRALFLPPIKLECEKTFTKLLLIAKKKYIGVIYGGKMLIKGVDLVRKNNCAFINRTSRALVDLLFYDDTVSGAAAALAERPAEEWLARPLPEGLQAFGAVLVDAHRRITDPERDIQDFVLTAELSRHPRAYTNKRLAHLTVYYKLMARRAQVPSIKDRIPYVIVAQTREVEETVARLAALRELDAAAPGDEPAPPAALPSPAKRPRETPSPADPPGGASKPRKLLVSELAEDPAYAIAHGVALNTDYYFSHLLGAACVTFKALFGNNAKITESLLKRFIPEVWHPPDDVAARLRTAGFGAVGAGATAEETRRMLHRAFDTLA

Which IC50 (HIV-1 RT) does the source give for `C[C@H](Cn1cnc2c(N)ncnc21)OCP(=O)(O)OP(=O)(O)OP(=O)(O)O` [Tenofovir-DP, (R)-(1-(6-amino-9H-purin-9-yl)propan-2-yloxy)methylphosphonic diphosphoric anhydride] here?
The IC50 was 4300 nM.

What about the IC50 (HSV-1 DNA polymerase) of the same compound?
The IC50 was 1300 nM.

With `Nc1nc2c(ncn2COCCO)c(=O)[nH]1` [acyclovir, 9-(2-hydroxyethoxymethyl)guanine] as the compound, how does the “virus released in the supernatants and visible cytopathicity” value (HSV-2; concentrations equal to, or higher than 0.008 μg/ml) read?
The value was “full suppression of virus released in the supernatants and no visible cytopathicity”.

Which “toxic effects (increase in number of dead cells or alteration of differentiation)” value [1] does the source give for `Nc1ncnc2c1ncn2CCOCP(=O)(O)O` [adefovir, 9-[2-(phosphonylmethoxyethyl)adenine]] here?
Its value is “No toxic effects”.

What about the “activity against HSV replication in rafts compared with tenofovir” value (HSV-2 (G)) of the same compound?
The value was “more active against HSV replication than tenofovir”.

What about the “concentration resulting in complete protection of the epithelial tissue” value (HSV-2 (G)) of the same compound?
Its value is no less than 2 µg/mL.

And the “concentration giving complete protection from virus-induced cytopathic effect” value (HSV-1 (KOS))?
Its value is 2 µg/mL.

What about the survival (HSV-1 (Kos strain); 1% in DMSO) of the same compound?
The survival was 80%.

What about the “skin lesions in mice that died” value (HSV-1 (Kos strain); 1% in DMSO formulation) of the same compound?
The value was “died without developing skin lesions”.

And the survival (HSV-1 (Kos strain); 1% in gel, data not shown)?
The survival was 100%.

What about the EC50 (HSV-1 and HSV-2) of the same compound?
The EC50 was 3.6 to 13 µg/mL (≈ 13.2 to 47.6 µM).

What about the “protection against viral-induced morbidity and mortality” value (HSV-2 (G strain)) of the same compound?
The value was 80%.

What about the “appearance of lesions and subsequent death” value (HSV-2 (G strain); formulated in the gel at 1%) of the same compound?
The value was “significant delay in the appearance of lesions and subsequent death”.

What about the “HSV titer in supernatants” value (HSV-2; 0.4 μg/ml) of the same compound?
Its value is 5.4×10^3 TCID50/ml.

What about the “visible CPE” value (HSV-2; 0.4 μg/ml) of the same compound?
The value was 45%.

What about the “HSV titer in supernatants” value (HSV-2; 1 μg/ml) of the same compound?
Its value is 8.5×10^2 TCID50/ml.

And the “visible CPE” value (HSV-2; 1 μg/ml)?
The value was 5%.

What about the “viral particles in the supernatants and visible CPE” value (HSV-2; drug concentrations between 500 and 5 μg/ml) of the same compound?
The value was “neither viral particles in the supernatants nor visible CPE were found”.

With `O=c1[nH]c(=O)n([C@H]2C[C@H](O)[C@@H](CO)O2)cc1/C=C/Br` [brivudin, RE)-5-(2-bromovinyl)-1(-D-2′-deoxyribofuranos-1-yl-uracil] as the compound, how does the “antiherpetic activity against thymidine kinase-deficient strains compared with wild-type” value (shortened to “antiherpetic activity … compared with wild-type”) [2] read?
Its value is “lost their antiherpetic activity”.

`Nc1ccn(C[C@@H](CO)OCP(=O)(O)O)c(=O)n1` [cidofovir, (S)-1-(3-hydroxy-2-phosphonylmethoxypropyl)cytosine] was tested. Which “toxic effects (increase in number of dead cells or alteration of differentiation)” value [1] did it give?
The value was “No toxic effects”.

What about the “activity against HSV replication in rafts compared with tenofovir” value (HSV-2 (G)) of the same compound?
Its value is “more active against HSV replication than tenofovir”.

What about the “concentration resulting in complete protection of the epithelial tissue” value (HSV-2 (G)) of the same compound?
Its value is 0.2 µg/mL.

What about the “concentration giving complete protection from virus-induced cytopathic effect” value (HSV-1 (KOS)) of the same compound?
Its value is no less than 0.5 µg/mL.

And the EC50 ([2]; Fibroblast, read-out: mean EC50 values (range over isolate groups))?
The EC50 was 0.35 to 0.67 µg/mL (≈ 1.25 to 2.4 µM).

And the “protection against virus-induced morbidity and mortality” value (HSV-1 (Kos strain); either the DMSO or the gel formulation)?
The value was “completely protected”.

What about the EC50 (HSV-1 and HSV-2) of the same compound?
Its EC50 is 0.63 to 4.4 µg/mL (≈ 2.26 to 15.8 µM).

What about the “protection against viral-induced morbidity and mortality” value (HSV-2 (G strain)) of the same compound?
The value was 100%.

What about the “protection against HSV-2-induced morbidity and mortality” value (HSV-2 (G strain); formulated in gel) of the same compound?
Its value is 80%.

For `Nc1nc2c(ncn2COC(CO)CO)c(=O)[nH]1` [ganciclovir, 9-(1,3-dihydroxy-2-propoxymethyl)guanine], which “antiherpetic activity … compared with wild-type” value [2] is on record?
Its value is “lost their antiherpetic activity”.

`Nc1ccn([C@@H]2CS[C@H](CO)O2)c(=O)n1` [lamivudine] was tested. Which “effect on HSV-2G replication compared to untreated donor-matched tissues” value (HSV-2 strain G (HSV-2G)) did it give?
Its value is “no effect”.

How did the “antiherpetic activity … compared with wild-type” value [2] turn out when `Nc1nc2c(ncn2CCC(CO)CO)c(=O)[nH]1` [penciclovir, 9-(4-hydroxy-3-hydroxymethylbut-1-yl)guanine] was run?
Its value is “lost their antiherpetic activity”.
